{"source": "patent US20170112896A1", "about": "“SMALL MOLECULE RAC OR RHO INHIBITORS” (Ohio State Innovation Foundation, priority 2014, published 2017)", "key": {"[1]": {"biological_target": "T1, Ras(G12V)-Raf RBD interaction (Homo sapiens, UniProt P01116, G12V)", "T1 construct": "The G12V mutant K-Ras (amino acids 1-185) was recombinantly fused to glutathione 5-transferase (GST) at its N-terminus; GST (N, cleaved yes); made in house; host or cells: Escherichia coli BL21", "T1 sequence (P01116 1-185 isoform P01116-2 G12V)": "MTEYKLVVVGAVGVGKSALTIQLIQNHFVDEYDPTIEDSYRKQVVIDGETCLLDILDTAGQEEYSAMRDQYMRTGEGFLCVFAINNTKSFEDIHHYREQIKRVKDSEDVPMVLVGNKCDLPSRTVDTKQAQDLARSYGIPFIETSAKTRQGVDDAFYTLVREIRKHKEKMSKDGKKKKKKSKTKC", "test": "HTRF assay, inhibition of Ras-Raf RBD interaction", "format": "binding", "settings": "relative to 9A1", "procedure": "Recombinant HA-tagged K-Ras (no GST, 50 nM), GST-Raf RBD (50 nM each), a monoclonal anti-HA antibody labeled with acceptor d2 (2 μg/mL), a monoclonal anti-GST antibody labeled with donor Tb (0.25 μg/mL) (Cisbio), and increasing concentrations of cyclic peptide (0-20 μM) were mixed in PBS (total volume of 20 μL) in a 384-well plate. The plate was incubated overnight at 4° C. and the HTRF signal was measured on a Molecular Devices Spectramax M5 or a Tecan infinite M1000 Pro plate reader. The data were analyzed by Prism 6.0 from Graphpad Software, Inc. (La Jolla, Calif.) and IC50 values were obtained by fitting the data to dose-response-inhibition curve."}, "[2]": {"test_system": "Akt, Mek and Erk phosphorylation in H1650 cells", "test": "Western blot of Akt, Mek, Erk phosphorylation in H1650 cells", "format": "cell-based", "settings": "10 μM, 10 min"}, "[3]": {"test_system": "actin filaments in A549 cells", "test": "Actin filament staining (phalloidin-FITC) and cell morphology", "format": "cell-based", "settings": "cells exposed to peptide"}, "[4]": {"test_system": "EGF receptor phosphorylation", "test": "IP/Western blot of EGFR phosphorylation", "format": "cell-based", "settings": "13 μM", "description": "(§1) Two well characterized Ras effector pathways are the Raf-Mek-Erk and PI3K-Akt signaling pathways (Karnoub, A. E. et al. (2008) Nat Rev. Mol. Cell Biol. 9:517). To determine whether the cyclic peptides inhibited the intracellular Ras activity, Applicant monitored the phosphorylation levels of Mek, Erk, and Akt in cells before and after treatment with the Ras inhibitors. […] In order to rule out that the observed downregulation of P-Mek, P-Erk and P-Akt is caused by inhibition of EGFR signaling, the effect of Cyclosrasin 9A5 on the phosphorylation of the EGFR was tested by performing an IP/Western Blot experiment (FIG. 3E). Active, signaling EGFR is highly autohophosphorylated."}, "[5]": {"test_system": "Rac and Rho signaling (cofilin, Paxilin, FAK, Mek Ser298, c-Raf Ser338) in H1299 cells", "test": "Western blot of effector proteins of Rac and Rho signaling in H1299 cells", "format": "cell-based", "settings": "13 μM"}, "[6]": {"test_system": "Akt, Mek and Erk phosphorylation in A549 cells", "test": "Western blot of Akt, Mek, Erk phosphorylation in A549 cells", "format": "cell-based", "settings": "10 μM, 10 min"}, "[7]": {"test_system": "Akt, Mek and Erk phosphorylation in H1975 cells", "test": "Western blot of Akt, Mek, Erk phosphorylation in H1975 cells", "format": "cell-based", "settings": "10 μM, 10 min"}, "[8]": {"test_system": "Akt, Mek and Erk phosphorylation in H1299 cells", "test": "Western blot of Ras signaling (Akt, Mek, Erk phosphorylation) in H1299 cells", "format": "cell-based", "settings": "for IC50: 10 min treatment", "description": "as §1"}, "H-Ras(WT)": {"biological_target": "T2, H-Ras(WT) (Homo sapiens, UniProt P01112)", "T2 construct": "purchased Origene (Rockville, Md.)", "test": "FA binding of FITC-9A5 to H-Ras", "settings": "FITC-labeled peptide", "description": "(§2) Reagents for peptide synthesis were purchased from Peptides International (Louisville, Ky.), NovaBiochem (La Jolla, Calif.), Anaspec (San Jose, Calif.), Chem-Impex International Inc. (Wood Dale, Ill.), or Aapptec (Lousiville, Ky.). N-Hydroxysuccinimidyl biotin was purchased from Chem-Impex International (Wood Dale, Ill.) and N-(9-fluorenylmethoxycarbonyloxy)succinimide (Fmoc-OSu) from Advanced ChemTech. Phenyl isothiocyanate (PITC), isopropyl13-D-1-thiogalactopyranoside (IPTG), protease inhibitor cocktail tablets, ampicillin and kanamycin were purchased from Sigma-Aldrich. Cell proliferation kit (MTT) was purchased from Roche (Indianapolis, Ind.). Cell culture media, fetal bovine serum, penicillin-streptomycin, 0.25% trypsin-EDTA, DPBS (2.67 mM potassium chloride, 1.47 mM potassium phosphate monobasic, 137 mM sodium chloride, 8.06 mM sodium phosphate dibasic), streptavidin-coated Dynabeads M-280, Texas red N-hydroxysuccinimide ester, and tetramethylrhodamine (TMR) azide were purchased from Invitrogen (Carlsbad, Calif.). Anti-GST-Tb and Anti-HA d2 antibodies were purchased from Cisbio (Bedford, Mass.). Recombinant K-Ras WT, H-Ras WT, Rac1, RhoA and CDC42 were purchased from Origene (Rockville, Md.). Solvents and other chemical reagents were purchased from Sigma-Aldrich or VWR (West Chester, Pa.)."}, "Ras-GTP": {"biological_target": "Ras-GTP (Homo sapiens, UniProt P01116, G12V)", "sequence (P01116 1-185 isoform P01116-2 G12V)": "as above", "test": "biochemical", "procedure": "(§3) To prepare Ras-GTP, purified K-Ras was incubated with 20 mM EDTA plus 2 mM GTP in PBS overnight at 4° C. After addition of 40 mM of MgCl2, the protein was dialyzed against PBS.\n(§4) For cyclic peptides derived from single library beads (library screening), K-Ras protein (non-GST fusion, 0-20 μM) was incubated with the TMR-labeled peptide (50 or 100 nM) in 20 μL, of the blocking buffer for 2.5 h at 24° C. The FA values were measured on a Molecular Devices Spectramax M5 spectrofluorimeter, with excitation and emission wavelengths at 545 and 585 nm, respectively. Equilibrium dissociation constants (KD) were determined by plotting the FA values as a function of K-Ras concentration and fitting the data to the equation\n(§5) FA analyses with resynthesized FITC-labeled peptides were similarly carried oμL, except that the excitation and emission wavelengths were at 494 and 520 nm, respectively."}, "Rac1": {"biological_target": "T3, Rac1 (Homo sapiens, UniProt P63000)", "T3 construct": "purchased Origene (Rockville, Md.)", "test": "FA binding of FITC-9A5 to recombinant Rac1", "description": "as §2"}, "Ras-GDP": {"biological_target": "Ras-GDP (Homo sapiens, UniProt P01116, G12V)", "sequence (P01116 1-185 isoform P01116-2 G12V)": "as above", "test": "biochemical", "procedure": "as §3, §4, §5"}, "Ras-GPPNP": {"biological_target": "Ras-GPPNP (Homo sapiens, UniProt P01116, G12V)", "sequence (P01116 1-185 isoform P01116-2 G12V)": "as above", "test": "biochemical", "procedure": "as §3, §4, §5"}, "RhoA": {"biological_target": "T4, RhoA (Homo sapiens, UniProt P61586)", "T4 construct": "purchased Origene (Rockville, Md.)", "T4 sequence (P61586 whole entry)": "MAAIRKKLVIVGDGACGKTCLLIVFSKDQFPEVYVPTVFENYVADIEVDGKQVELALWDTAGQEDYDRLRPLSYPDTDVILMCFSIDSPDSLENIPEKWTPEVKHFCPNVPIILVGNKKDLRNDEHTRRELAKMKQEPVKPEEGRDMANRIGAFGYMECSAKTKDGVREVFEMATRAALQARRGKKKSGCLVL", "test": "FA binding of FITC-9A5 to recombinant RhoA", "description": "as §2"}, "bovine serum albumin": {"biological_target": "T5, bovine serum albumin (Bos taurus, UniProt P02769)", "T5 construct": "from tissue; host or cells: bovine serum (from the name only)", "T5 sequence (P02769 25-607)": "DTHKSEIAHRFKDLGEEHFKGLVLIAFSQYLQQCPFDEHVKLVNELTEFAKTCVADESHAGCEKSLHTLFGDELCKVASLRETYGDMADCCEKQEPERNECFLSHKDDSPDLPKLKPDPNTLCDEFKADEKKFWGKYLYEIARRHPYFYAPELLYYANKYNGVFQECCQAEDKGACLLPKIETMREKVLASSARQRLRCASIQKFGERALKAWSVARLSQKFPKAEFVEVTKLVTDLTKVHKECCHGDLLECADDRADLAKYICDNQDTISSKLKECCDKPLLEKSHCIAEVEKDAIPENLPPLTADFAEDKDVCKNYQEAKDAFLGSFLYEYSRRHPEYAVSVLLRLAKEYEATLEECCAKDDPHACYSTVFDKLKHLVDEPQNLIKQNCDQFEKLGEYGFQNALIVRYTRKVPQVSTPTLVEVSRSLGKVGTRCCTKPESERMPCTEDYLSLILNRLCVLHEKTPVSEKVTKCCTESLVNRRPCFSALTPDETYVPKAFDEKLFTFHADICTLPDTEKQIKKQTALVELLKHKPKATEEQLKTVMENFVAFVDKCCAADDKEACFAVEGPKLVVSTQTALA", "test": "FA binding of FITC-9A5 to control protein BSA", "procedure": "The FA values were measured on a Molecular Devices Spectramax M5 spectrofluorimeter, with excitation and emission wavelengths at 545 and 585 nm, respectively. Equilibrium dissociation constants (KD) were determined by plotting the FA values as a function of K-Ras concentration and fitting the data to the equation\nwhere Y is the measured anisotropy at a given K-Ras concentration x; L is the peptide concentration; Qb/Qf is the correction fact for dye-protein interaction; Amax is the maximum anisotropy at saturating K-Ras concentration; and Amin is the minimum anisotropy. FA analyses with resynthesized FITC-labeled peptides were similarly carried oμL, except that the excitation and emission wavelengths were at 494 and 520 nm, respectively."}}, "note": "Several values for one entry are separate records, joined by “and”; a condition that tells them apart may be missing. Equal values may be shown once. Entries after “also recorded” stand apart in the source; their conditions may differ. Read-outs that look alike come from different tables or passages of the source. Square brackets hold non-standard residues; d marks the D form. Peptide text beside a SMILES is read from it. * marks the point of attachment. FITC = O=C1OC2(c3ccc(O)cc3Oc3cc(O)ccc32)c2ccc(NC(=S)*)cc21; Phe(4-F) = N[C@@H](Cc1ccc(F)cc1)C(=O)O; d2Nal = N[C@H](Cc1ccc2ccccc2c1)C(=O)O; dNle = CCCC[C@@H](N)C(=O)O"}
{"smiles": "CCCC[C@H]1NC(=O)[C@H](Cc2ccc(F)cc2)NC(=O)[C@H](CCCNC(=N)N)NC(=O)[C@@H](Cc2ccc3ccccc3c2)NC(=O)[C@H](CCCNC(=N)N)NC(=O)[C@H](CCCNC(=N)N)NC(=O)[C@H](CCCNC(=N)N)NC(=O)[C@@H](C)NC(=O)[C@H]([C@@H](C)O)NC(=O)[C@H](Cc2c[nH]c3ccccc23)NC(=O)[C@H](CCC(N)=O)NC1=O", "note": "[Cyclorasin 9A5, (Trp-Thr-ala-Arg-Arg-Arg-nal-Arg-Fpa-nle-Gln)] (cyclo(WT[dA]RRR[d2Nal]R[Phe(4-F)][dNle]Q))", "values": [{"measurement": "higher potency than 9A1 against K-Ras", "setting": "[1]", "value": 3, "unit": "fold"}, {"measurement": "cell permeability / intracellular fluorescence", "setting": "A549 lung cancer cells", "value": "improved cell permeability"}, {"measurement": "Mek, Erk and Akt phosphorylation", "setting": "[2]", "value": "almost completely abolished; also recorded: can be inhibited"}, {"measurement": "cell morphology", "setting": "[3]", "value": "rapid morphological changes"}, {"measurement": "EGFR phosphorylation level", "setting": "[4]", "value": "does no affect; also recorded: no effect"}, {"measurement": "phosphorylation of Paxilin (Tyr118), FAK (Tyr397), Mek (Ser298) and c-Raf (Ser338)", "setting": "[5]", "value": "dephosphorylated"}, {"measurement": "phosphorylation of cofilin", "setting": "[5]", "value": "decreased"}, {"measurement": "Mek, Erk and Akt phosphorylation", "setting": "[6]", "value": "significant Mek and Erk phosphorylation remained"}, {"measurement": "Mek, Erk and Akt phosphorylation", "setting": "[7]", "value": "almost completely abolished; also recorded: can be inhibited"}, {"measurement": "basal phosphorylation of Mek and Akt", "setting": "[8]; H1299 cells unstimulated with EGF, 10 μM for 10 min", "value": "inhibited"}, {"measurement": "Mek, Erk and Akt phosphorylation", "setting": "[8]; H1299 cells, 10 μM, 10 min", "value": "almost completely abolished"}, {"measurement": "EGF-induced phosphorylation of Akt and Mek", "setting": "[8]; H1299 cells, 13 μM, 5 min", "value": "significant reduction"}, {"measurement": "phosphorylation level of Erk", "setting": "[8]; H1299 cells, 13 μM, time course", "value": "decreased, but to a lesser extent and at a later time point"}, {"measurement": "EGF-induced phosphorylation of Akt and Mek", "setting": "[8]; H1299 cells, 13 μM, ≧10 min", "value": "completely abolished"}, {"measurement": "IC50", "setting": "[8]; H1299 cells, read-out: IC50, inhibition of Akt phosphorylation", "value": "~5000", "unit": "nM"}, {"measurement": "IC50", "setting": "[8]; H1299 cells, read-out: IC50, inhibition of Mek phosphorylation", "value": "~5000", "unit": "nM"}]}
{"smiles": "CCCC[C@H]1NC(=O)[C@H](Cc2ccc(F)cc2)NC(=O)[C@H](CCCNC(=N)N)NC(=O)[C@@H](Cc2ccc3ccccc3c2)NC(=O)[C@H](CCCCNC(=S)Nc2ccc3c(c2)C(=O)OC32c3ccc(O)cc3Oc3cc(O)ccc32)NC(=O)[C@H](CCCNC(=N)N)NC(=O)[C@H](CCCNC(=N)N)NC(=O)[C@@H](C)NC(=O)[C@H]([C@@H](C)O)NC(=O)[C@H](Cc2c[nH]c3ccccc23)NC(=O)[C@H](CCC(N)=O)NC1=O", "note": "[FITC-9A5] (cyclo(K(FITC)[d2Nal]R[Phe(4-F)][dNle]QWT[dA]RR))", "values": [{"measurement": "Kd", "setting": "H-Ras(WT)", "value": 500, "unit": "nM"}, {"measurement": "Kd", "setting": "Ras-GTP", "value": 440, "unit": "nM"}, {"measurement": "cell permeability / intracellular fluorescence", "setting": "A549 lung cancer cells", "value": "intense, defuse fluorescence throughout the cytoplasm"}, {"measurement": "Kd", "setting": "Rac1", "value": 250, "unit": "nM"}, {"measurement": "Kd", "setting": "Ras-GDP", "value": 2500, "unit": "nM"}, {"measurement": "Kd", "setting": "Ras-GPPNP", "value": 640, "unit": "nM"}, {"measurement": "Kd", "setting": "RhoA", "value": 180, "unit": "nM"}, {"measurement": "Kd", "setting": "bovine serum albumin", "value": "30000 nM and 31000 nM"}]}
